# Assay results from patent US10548999B2, “Method and apparatus for sterilizing preform” (DAI NIPPON PRINTING CO., LTD., priority 2012, dated 2020).
# Like-named read-outs stand apart in the source and are kept apart here.
# Key:
# BaciLLus subtiLis [1] = test system: BaciLLus subtiLis
# Experimental: (§1) The first chamber 5a and the second chamber 6a have size of 1000 mm width, and 1500 mm length, and 200 mm height, respectively. Preforms, each being formed into a bottle of 500 ml, were supplied to the conveyer by the number of 860 bottles/min., and the conveyer was driven at a predetermined speed.
# (§2) In the above Table 4, term “B” is an abbreviated term of “BaciLLus subtiLis”, and “A.nig.” is an abbreviated term of “AspergiLLus niger”. “D” is a D-valve indicating the sterilization effect.
# AspergiLLus niger [2] = test system: AspergiLLus niger
# Experimental: as §1, §2
# BaciLLus subtiLis [3] = test system: BaciLLus subtiLis; remark: listed apart in the source
# Experimental: The hydrogen peroxide water adhered to each preform having inner volume of 500 ml for bottle as in the first example 1. Furthermore, superheated steam of flow amount of 0.7 g/sec. generated by heating water by a superheated steam generator of an induction heating system was sprayed to the inner surface of each preform from a nozzle having inner diameter of 8 mm at blasting temperature in a range of 180 to 550° C. for 10 to 3 sec.
# Further, it is to be noted that, in the above Table 3, the sterilization effect is shown with [∘] (good) in the case where the D-value with respect to BaciLLus subtiLis is not less than 6, and the other cases are shown with [x] (not good). With respect to the deformation of the inner diameter, in the case where the inner diameter of the preform is deformed by less than 0.05 mm is shown [∘] (good), and the other cases are shown with [x] (not good).
# [4] = preform molded into a bottle and filled with water
# Experimental: (§3) Mist of hydrogen peroxide water was produced by supplying hydrogen peroxide water of 35% concentration and pressurized air to a two-fluid spray, the thus produced mist was mixed with hot air having temperature of 60° C., and then, the mist of the hydrogen peroxide water was sprayed inside a chamber through a nozzle. The chamber is a box-shaped member, having no bottom, having a size of 1,000 mm width, 1,500 mm length and 200 mm height, and the box-shaped chamber was set to a predetermined position on the conveyer having 600 mm width. Preforms of the number of 860 bottles/min., each being formed into a bottle of […], were supplied to the conveyer, which is driven at a speed of 0.2/sec.
# BaciLLus subtiLis [5] = conditions: 35% hydrogen peroxide water mist mixed with 60° C. hot air, about 50 mg per preform
# Experimental: as §3
# BaciLLus subtiLis [6] = conditions: then superheated steam 300° C. 5 sec. to inner surface
# Experimental: (§4) Mist of hydrogen peroxide water was produced by supplying hydrogen peroxide water of 35% concentration and pressurized air to a two-fluid spray, the thus produced mist was mixed with hot air having temperature of 60° C., and then, the mist of the hydrogen peroxide water was sprayed inside a chamber through a nozzle. The chamber has a size of 600 mm width, and a conveyer has 1.5 m length. Preforms, each being formed into a bottle of […], were supplied to the conveyer by the number of 860 bottles/min., and the conveyer was driven at a speed of 0.2/sec. […] Furthermore, preforms, each being formed into a bottle of […], were supplied by the number of 250 bottles/min., and the same operation was performed. […] Such preforms were subjected to the following treatment.
# (§5) Superheated steam of flow amount of 0.7 g/sec. generated by heating water by a superheated steam generator of induction heating system was sprayed to each inner surface of the preform from a nozzle having inner diameter of 8 mm at blasting temperature of 300° C. for 5 sec.
# (§6) In the above Table 1, term “B” is an abbreviated term of “BaciLLus subtiLis”, and “A.nig.” is an abbreviated term of “AspergiLLus niger”. “D” is a D-valve indicating the sterilizing effect.
# AspergiLLus niger [7] = conditions: then superheated steam 300° C. 5 sec. to inner surface
# Experimental: as §4, §5, §6
# [8] = hydrogen peroxide 3%, hot air NO, superheated steam 400° C., 0.2 m/sec.
# [9] = preform for 2 L, 35% mist about 150 mg
# [10] = preform for 500 mL, 35% mist about 50 mg
smiles,measurement,setting,value
OO [hydrogen peroxide],sterilization effect B. sub.,"BaciLLus subtiLis [1]; hydrogen peroxide 3%, hot air 100° C., superheated steam 200° C., 0.2 m/sec.",5.3D
same,sterilization effect B. sub.,"BaciLLus subtiLis [1]; hydrogen peroxide 3%, hot air 100° C., superheated steam 400° C., 0.2 m/sec.",6.0D
same,sterilization effect B. sub.,BaciLLus subtiLis [1]; [8],4.0D
same,sterilization effect B. sub.,"BaciLLus subtiLis [1]; hydrogen peroxide 10%, hot air 80° C., superheated steam 400° C., 0.2 m/sec.",6.0D
same,sterilization effect B. sub.,"BaciLLus subtiLis [1]; hydrogen peroxide 10%, hot air NO, superheated steam 400° C., 0.5 m/sec.",5.5D
same,sterilizing effect with respect to the B.sub,BaciLLus subtiLis [1]; preheating performed and superheated steam added with hydrogen peroxide blasted (summary of Table 4),more than 6.0 D
same,sterilization effect A. niger,AspergiLLus niger [2]; [8],6.0D
same,sterilizing effect with respect to the A. niger,"AspergiLLus niger [2]; superheated steam added with hydrogen peroxide, regardless of the preheating by hot air (summary of Table 4)",more than 6.0 D
same,Sterilizing Effect,"BaciLLus subtiLis [3]; hydrogen peroxide water as in Example 1, then superheated steam 180° C., 10 sec.",X (the other cases are shown with [x] (not good))
same,Sterilizing Effect,"BaciLLus subtiLis [3]; hydrogen peroxide water as in Example 1, then superheated steam 250° C., 6 sec.",◯ ([∘] (good) in the case where the D-value with respect to BaciLLus subtiLis is not less than 6)
same,Sterilizing Effect,"BaciLLus subtiLis [3]; hydrogen peroxide water as in Example 1, then superheated steam 350° C., 4 sec.",◯ ([∘] (good) in the case where the D-value with respect to BaciLLus subtiLis is not less than 6)
same,Sterilizing Effect,"BaciLLus subtiLis [3]; hydrogen peroxide water as in Example 1, then superheated steam 450° C., 3 sec.",◯ ([∘] (good) in the case where the D-value with respect to BaciLLus subtiLis is not less than 6)
same,Sterilizing Effect,"BaciLLus subtiLis [3]; hydrogen peroxide water as in Example 1, then superheated steam 550° C., 3 sec.",◯ ([∘] (good) in the case where the D-value with respect to BaciLLus subtiLis is not less than 6)
same,remaining amount of the hydrogen peroxide,[4],0.012 ppm
same,sterilizing power,BaciLLus subtiLis [5]; inner surface of the preform,4.2 D
same,sterilizing power,BaciLLus subtiLis [5]; outer surface of the preform,5.3 D
same,sterilizing effect B. sub.,BaciLLus subtiLis [6]; [9],3.0D
same,sterilizing effect B. sub.,BaciLLus subtiLis [6]; [10],3.1D
same,sterilizing effect A. nig,AspergiLLus niger [7]; [9],More than 6.0D
same,sterilizing effect A. nig,AspergiLLus niger [7]; [10],More than 6.0D
